{"source": "patent US11370769B2", "about": "“TRPC5 inhibitors and methods of using same” (BOARD OF REGENTS OF THE UNIVERSITY OF NEBRASKA, priority 2017, dated 2022)", "test_system": "Dahl S rats", "test": "Dahl salt-sensitive rat model of hypertension-induced FSGS", "type": "in vivo", "experimental": "Animals and chemicals: Littermates of wild-type (WT) and AT1R TgNeph-hAT1R/185 transgenic (AT1R Tg) rats were housed under a controlled environment with a 12-hour light-dark cycle and access to food and water ad libitum, unless otherwise described. All animal experiments were performed in accordance to the guidelines established and approved by the Animal Care and Use Committee at Brigham and Women's Hospital, Harvard Medical School (Animal Protocol No. 01538). AT1R Tg rats were placed in the Onset cohort when measured proteinuria was >5 mg/day (at approximately 12 weeks of age) on two separate 24-hour urine collections. AT1R Tg rats were placed in the Advanced cohort when measured proteinuria was >25 mg/day (at approximately 18 weeks of age) on two separate 24-hour urine collections. These thresholds were determined after detailed histologic and phenotypic characterization of AT1R Tg rats compared to WT littermates (all combined, n=91 WT rats and n=122 AT1R Tg rats were studied). The Dahl salt-sensitive (S) inbred strain is maintained at University of Mississippi Medical Center (UMMC) and was originally obtained from University of Toledo-College of Medicine (SS/Jr). All animal experiments performed at UMMC were in accordance to the guidelines established and approved by the Institutional Animal Care and Use Committee. Animals used for this studied were provided either low-salt diet [TD7034, 0.3% NaCl and/or high-salt diet [TD94217, 2.0% NaCl] from Harlan Teklad, Madison, Wis. For onset study, at 4 weeks of age, groups of age-matched male S were weaned to the low-salt diet and divided into two groups: vehicle (n=8) and AC1903 groups (n=8). At 6 weeks of age, both groups were placed on the high-salt diet and concurrently treated with either vehicle or AC1903 for 1-week (Onset). For Advanced study, similarly at 4 weeks of age, groups of age-matched male S were weaned to the low-salt diet and divided into two groups: vehicle (n=9) and AC1903 groups (n=11). At 6 weeks of age, both groups were placed on the high-salt diet. At week 7, concurrent with high-salt diet, animals were treated with either vehicle or AC1903 for 1-week (Advanced). At the conclusion of each study, animals were initially anesthetized under 2-3% isoflurane/O2 gas, a catheter attached to a fluid filled pressure transducer was placed in the aorta, isoflurane gas was reduced to 1.5%, and mean arterial pressure was measured for ˜5 min period using PowerLab 4/30 system (ADI Instruments, Co) as done previously. All chemicals were purchased from Sigma-Aldrich unless otherwise described.\nChemical preparation and IP administration: ML204 and AC1903 were prepared from powder in a single batch for each in vivo experiment to avoid variability. Immediately prior to injections, ML204 or AC1903 solution was placed on a heated shaker at 48° C. and 800 RPM. Vehicle was prepared in the same fashion. Injection volume was determined by body weight (2 mL vehicle/compound per kg body weight). Body weight was measured at the time of injection.\nUrine collection and assay: For urine collections, rats were housed individually in a metabolic cage supplied with food and water. Urine was collected into a 50 mL falcon tube for 24 hours. Total urine volume was measured and then centrifuged at 3,200 rcf for 10 min at 4° C. Albumin quantification was done according to previously published protocol (11), involving multiple dilutions of urine from each animal compared to Bovine Serum Albumin (BSA) standards. Coumassie Blue stained gels were quantified by densitometry using ImageJ software. As an additional control, the rat ELISA Albumin kit (Exocell) was used for albumin quantification according to the manufacturer's recommendations and yielded the same results. Urine protein was measured using QuanTtest® Red Total Protein Assay System (Quantimetrix, Redondo Beach, Calif.) and expressed as mg protein/24 hours. […]"}
{"smiles": "c1ccc(Cn2c(NCc3ccco3)nc3ccccc32)cc1", "note": "[AC1903]", "values": [{"measurement": "numbers of podocytes per glomerulus", "setting": "AC1903 treated Dahl S rats, stated similar to WT and AC1903-treated AT1R Tg rats", "result": "approximately 120 podocytes/glom"}, {"measurement": "BUN", "setting": "AC1903 treatment", "result": "no effect"}, {"measurement": "body weight", "setting": "AC1903 treatment", "result": "no effect"}, {"measurement": "creatinine", "setting": "AC1903 treatment", "result": "no effect"}, {"measurement": "mean arterial pressure (MAP)", "setting": "AC1903 treatment", "result": "did not affect"}, {"measurement": "numbers of podocytes per glomerulus compared to vehicle-treated controls", "setting": "Advanced, AC1903 50 mg/kg", "result": "higher"}, {"measurement": "proteinuria", "setting": "Advanced: 50 mg/kg, treatment day 7 to day 14 of 2% NaCl", "result": "significant suppression of proteinuria"}, {"measurement": "rate of progressive proteinuria", "setting": "Onset: 50 mg/kg twice daily i.p. from start of 2% NaCl diet, 1 week", "result": "significantly reduced"}]}
